PubChem BioAssay AID248 (DTP/NCI, 2004)
Values joined by “and” are separate entries in the source; they are usually repeats but may differ in a detail not shown here. Equal values may be shown once. Toxic doses and inconclusive results are not listed. Rule as the data show it: active = T/C of 150% or more; inactive = T/C below 125%.

System: L1210 leukemia ip in BDF1 mice, survival T/C
Test: NCI In Vivo Anticancer Drug Screen. Data for tumor model L1210 Leukemia (intraperitoneal) in B6D2F1 (BDF1) mice
Conditions: endpoint: mean survival time, higher = longer survival
Summary of the method: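 Transplanted-tumor mice were given test agent; controls received vehicle only. Survival readings from the two groups were divided (treated over control).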

[1] = dose: 100.0 mg/kg/injection, schedule: Q01DX001 (ip), vehicle: saline
[2] = dose: 200.0 mg/kg/injection, schedule: Q01DX001 (ip), vehicle: saline
[3] = dose: 400.0 mg/kg/injection, schedule: Q01DX001 (ip), vehicle: saline
[4] = dose: 100.0 mg/kg/injection, schedule: Q04DX003 (ip), vehicle: other
[5] = dose: 200.0 mg/kg/injection, schedule: Q04DX003 (ip), vehicle: other
[6] = dose: 100.0 mg/kg/injection, schedule: Q04DX003 (ip), vehicle: saline with Tween-80
[7] = dose: 200.0 mg/kg/injection, schedule: Q04DX003 (ip), vehicle: saline with Tween-80
[8] = dose: 400.0 mg/kg/injection, schedule: Q04DX003 (ip), vehicle: saline with Tween-80
[9] = dose: 100.0 mg/kg/injection, schedule: Q04DX003 (ip), vehicle: saline
[10] = dose: 200.0 mg/kg/injection, schedule: Q04DX003 (ip), vehicle: saline
[11] = dose: 25.0 mg/kg/injection, schedule: Q01DX009 (ip), vehicle: saline

Measured: T/C

CC(C)(C)NC(=O)C1CC2(C)CCC1C2(C)C (configuration not stated)
inactive: dose: 75.0 mg/kg/injection, schedule: Q01DX001 (ip), vehicle: other 93 % of control | dose: 150.0 mg/kg/injection, schedule: Q01DX001 (ip), vehicle: other 93 % of control

C/C(=N/Nc1ccccc1)c1ccccn1
inactive: dose: 100.0 mg/kg/injection, schedule: Q04DX003 (ip), vehicle: Klucel (hydroxypropylcellulose) (HPC) 98 % of control | dose: 200.0 mg/kg/injection, schedule: Q04DX003 (ip), vehicle: Klucel (hydroxypropylcellulose) (HPC) 96 % of control | dose: 400.0 mg/kg/injection, schedule: Q04DX003 (ip), vehicle: Klucel (hydroxypropylcellulose) (HPC) 98 % of control

CC12CCc3oc(-c4ccccc4)cc3C1=CCCC2=O (configuration not stated)
inactive: dose: 100.0 mg/kg/injection, schedule: Q01DX001 (ip), vehicle: saline with Tween-80 102 % of control | dose: 200.0 mg/kg/injection, schedule: Q01DX001 (ip), vehicle: saline with Tween-80 94 % of control | dose: 400.0 mg/kg/injection, schedule: Q01DX001 (ip), vehicle: saline with Tween-80 96 % of control

Cc1ccc(S(=O)(=O)ON2C(=O)c3cccc4cc([N+](=O)[O-])cc(c34)C2=O)cc1
inactive: [1] 95 % of control | [2] 101 % of control | [3] 104 % of control

N#CC(C#N)=Cc1ccco1
inactive: dose: 5.0 mg/kg/injection, schedule: Q01DX001 (ip), vehicle: saline 91 % of control | dose: 10.0 mg/kg/injection, schedule: Q01DX001 (ip), vehicle: saline 102 % of control | dose: 20.0 mg/kg/injection, schedule: Q01DX001 (ip), vehicle: saline 100 % of control | dose: 40.0 mg/kg/injection, schedule: Q01DX001 (ip), vehicle: saline 94 % of control

Cc1nc(N)[nH]c(=O)c1CCCNC(=O)c1ccc(C(=O)CBr)cc1
inactive: dose: 50.0 mg/kg/injection, schedule: Q01DX001 (ip), vehicle: Klucel (hydroxypropylcellulose) (HPC) 90 % of control | dose: 200.0 mg/kg/injection, schedule: Q01DX001 (ip), vehicle: Klucel (hydroxypropylcellulose) (HPC) 93 % of control

O=[N+]([O-])/C=C/c1ccco1
inactive: dose: 18.75 mg/kg/injection, schedule: Q04DX003 (ip), vehicle: saline with Tween-80 101 % of control | dose: 37.5 mg/kg/injection, schedule: Q04DX003 (ip), vehicle: saline with Tween-80 95 % of control | dose: 75.0 mg/kg/injection, schedule: Q04DX003 (ip), vehicle: saline with Tween-80 101 % of control

O=C1CCSc2ccccc21
inactive: dose: 37.5 mg/kg/injection, schedule: Q01DX009 (ip), vehicle: saline 102 % of control | dose: 75.0 mg/kg/injection, schedule: Q01DX009 (ip), vehicle: saline 111 % of control | dose: 100.0 mg/kg/injection, schedule: Q01DX001 (ip), vehicle: carboxymethylcellulose (CMC) 92 % of control | dose: 100.0 mg/kg/injection, schedule: Q01DX009 (ip), vehicle: saline sonified 105 % of control | [4] 96 % of control | dose: 150.0 mg/kg/injection, schedule: Q01DX009 (ip), vehicle: saline 104 % of control | dose: 200.0 mg/kg/injection, schedule: Q01DX001 (ip), vehicle: carboxymethylcellulose (CMC) 106 % of control | dose: 200.0 mg/kg/injection, schedule: Q01DX009 (ip), vehicle: saline sonified 93 % of control | [5] 96 % of control | dose: 400.0 mg/kg/injection, schedule: Q01DX001 (ip), vehicle: carboxymethylcellulose (CMC) 111 % of control | dose: 400.0 mg/kg/injection, schedule: Q01DX009 (ip), vehicle: saline sonified 97 % of control | dose: 400.0 mg/kg/injection, schedule: Q04DX003 (ip), vehicle: other 102 % of control

CC(C)COC(=O)C#CC(=O)OCC(C)C
inactive: dose: 25.0 mg/kg/injection, schedule: Q01DX001 (ip), vehicle: water 111 % of control | dose: 50.0 mg/kg/injection, schedule: Q01DX001 (ip), vehicle: water 106 % of control | dose: 100.0 mg/kg/injection, schedule: Q01DX001 (ip), vehicle: water 116 % of control

CC(C)C(C(=O)c1ccccc1)c1ccccc1 (configuration not stated)
inactive: dose: 100.0 mg/kg/injection, schedule: Q01DX009 (ip), vehicle: saline with Tween-80 93 % of control | [6] 99 % of control | dose: 200.0 mg/kg/injection, schedule: Q01DX009 (ip), vehicle: saline with Tween-80 93 % of control | [7] 100 % of control | dose: 400.0 mg/kg/injection, schedule: Q01DX009 (ip), vehicle: saline with Tween-80 104 % of control | [8] 89 % of control

NC(=O)N/N=C1\CC2C=CCC12 (configuration not stated)
inactive: [6] 94 % of control | [7] 92 % of control | [8] 108 % of control

O=C(CCl)OC(=O)C(Cl)(Cl)Cl
inactive: [9] 102 % of control | [10] 96 % of control

CCC[N+](C)(C)CCCOC(=O)C1C2CC3OC(=O)C1C3C2 (configuration not stated)
inactive: dose: 12.5 mg/kg/injection, schedule: Q04DX003 (ip), vehicle: saline 106 % of control | dose: 25.0 mg/kg/injection, schedule: Q04DX003 (ip), vehicle: saline 100 % of control | dose: 50.0 mg/kg/injection, schedule: Q04DX003 (ip), vehicle: saline 100 % of control | [9] 97 % of control | [10] 91 % of control

C=CCC1C(=O)CC(C)(C)CC1=O
inactive: [6] 103 % of control | [7] 103 % of control | [8] 111 % of control

ICc1ccc(CI)cc1
inactive: [11] 100 % of control | dose: 100.0 mg/kg/injection, schedule: Q01DX001 (ip), vehicle: other 106 % of control | dose: 100.0 mg/kg/injection, schedule: Q04DX003 (ip), vehicle: acetone 106 % of control | dose: 200.0 mg/kg/injection, schedule: Q01DX001 (ip), vehicle: other 88 % of control | dose: 400.0 mg/kg/injection, schedule: Q01DX001 (ip), vehicle: other 88 % of control

CC(C)CC(CO)Cc1nc2ccccc2[nH]1 (configuration not stated)
inactive: dose: 50.0 mg/kg/injection, schedule: Q04DX002 (ip), vehicle: Klucel (hydroxypropylcellulose) (HPC) 95 % of control | dose: 100.0 mg/kg/injection, schedule: Q04DX002 (ip), vehicle: Klucel (hydroxypropylcellulose) (HPC) 95 % of control | dose: 100.0 mg/kg/injection, schedule: Q04DX002 (ip), vehicle: other 105 % of control | [4] 97 % of control | dose: 200.0 mg/kg/injection, schedule: Q04DX002 (ip), vehicle: Klucel (hydroxypropylcellulose) (HPC) 93 % of control and 92 % of control | dose: 200.0 mg/kg/injection, schedule: Q04DX002 (ip), vehicle: other 91 % of control and 92 % of control | [5] 94 % of control | dose: 400.0 mg/kg/injection, schedule: Q04DX002 (ip), vehicle: Klucel (hydroxypropylcellulose) (HPC) 105 % of control | dose: 400.0 mg/kg/injection, schedule: Q04DX002 (ip), vehicle: other 102 % of control

COC1=C2C=[N+](C)C3C(=C2C=CC1OC)Cc1cc(OC)c(OC)cc13 (configuration not stated)
inactive: dose: 50.0 mg/kg/injection, schedule: Q01DX001 (ip), vehicle: saline 98 % of control | [1] 93 % of control | [2] 102 % of control | [3] 96 % of control

COc1cccc(CNCc2cccc(OC)c2O)c1O
inactive: [1] 96 % of control

[Cl][Nd]([Cl])[Cl]
inactive: dose: 12.5 mg/kg/injection, schedule: Q01DX009 (ip), vehicle: saline 98 % of control | [11] 87 % of control | dose: 50.0 mg/kg/injection, schedule: Q01DX009 (ip), vehicle: saline 93 % of control and 91 % of control | [9] 100 % of control | dose: 200.0 mg/kg/injection, schedule: Q01DX009 (ip), vehicle: saline 86 % of control | [10] 100 % of control

Cl[Si](Cc1ccccc1)(Cc1ccccc1)Cc1ccccc1
inactive: [1] 93 % of control | [2] 88 % of control | [3] 95 % of control
